From US20220119375A1, “3-ARYLOXY-3-ARYL-PROPYLAMINE COMPOUND AND USES THEREOF” (Zhangzhou Pien Tze Huang Pharmaceutical Co., Ltd., priority 2018, published 2022)
Read-outs that look alike come from different tables or passages of the source.

Assays:
[1] = Pharmacokinetic test in rat; assay type: in vivo; details: for bioavailability: oral, calculated on AUC(0-∞); for half-life: read-out: T½ (converted)
Experimental: A certain amount of sample was weighed and dissolved in deionized water to prepare 1 mg/mL of solution. Male SD rats were used as test animals. The dose of single intravenous (IV) injection was 2 mg/kg, and the dose of oral (PO) administration was 10 mg/kg. Each group had three rats. The rats in oral group were fasted for 10-14 hours before administration, and were fed 4 hours after administration. Animal blood collection time points were as follows: before administration, and 5 min, 15 min, 30 min, 1 h, 2 h, 4 h, 6 h, 8 h, and 24 h after administration for intravenous administration; before administration, and 15 min, 30 min, 1 h, 2 h, 4 h, 6 h, 8 h and 24 h after administration for oral administration. About 0.25 mL of blood was collected via the jugular vein from each animal, and heparin sodium was used for anticoagulation. After collecting the blood samples, the blood samples were placed on ice and centrifuged to separate the plasma (centrifugation conditions: 8000 rpm, 6 min, 4° C.). The collected plasma was stored at −80° C. before analysis. 50 μL of plasma sample was taken into 1.5 mL of centrifuge tube, 250 μL of internal standard solution was added, and the same volume of methanol rather than internal standard solution was added in the blank group. The mixture was vortexed and mixed, centrifuged at 14,000 rpm for 5 min, 200 μL of supernatant was taken into 96-well sample plate, and the LC-MS/MS was used for sample analysis. In the linear regression analysis, the peak area was taken as the y-axis and the drug concentration was taken as the x-axis. The linear relationship between the peak area ratio and the concentration was expressed by the correlation coefficient (R) obtained from the regression equation of the compound. According to the blood concentration data of the drug, the pharmacokinetic calculation software WinNonlin7.0 non-compartmental model was used to calculate the pharmacokinetic parameters of the test drug.
Internal standard working solution: a certain amount of tolbutamide internal standard stock solution with a concentration of 490,000 ng/mL was taken into a volumetric flask with a certain volume, diluted to a desired volume with methanol and mixed well to obtain the internal standard working solution with a concentration of 200 ng/mL.

human TRPA1 channel = target: T1, human TRPA1 channel (Homo sapiens, UniProt O75762); experiment: manual patch clamp detection of TRPA1 inhibitory activity; assay type: cell-based; details: for IC50: HEK293 stably expressing human TRPA1, 100 μM AITC, +100 mV
T1 construct: expressed in transfected cells; host or cells: HEK293
Experimental: The HEK293 cell line stably expressing human TRPA1 channel was placed in T75 culture flask with DMEM medium containing 15 μg/mL Blasticidin S HCl, 200 μg/mL Hygromycin B and 10% FBS, and cultured in incubator at 37° C. and 5% CO2. When the cell density reached about 80%, the culture medium was removed, the residue was rinsed with phosphate buffered saline (PBS) without calcium and magnesium. 2 mL of trypsin was added to digest for 2 minutes, and 8 mL of culture medium was added to terminate the digestion. The cells were collected to 15 mL centrifuge tube and centrifuged at 800 rpm for 3 min. After the supernatant was removed, an appropriate volume of extracellular fluid was added to re-suspend the cells.
In manual patch clamp detection, HEKA system (Patch Master software) was used together with EPC-10 amplifier to record the whole cell current of TRPA1 stably transfected cell line at room temperature. intracellular fluid formulation for whole cell recording was as follows (mM): 140 CsCl, 10 HEPES, 5 EGTA, 0.1 CaCl2, 1 MgCl2 (pH 7.2, osmotic pressure 295-300 mOsm); Ca^2+-free extracellular fluid formulation for recording was as follows (mM): 140 NaCl, 5 KCl, 0.5 EGTA, 1 MgCl2, 10 Glucose, 10 HEPES (pH 7.4, osmotic pressure 300-310 mOsm). Glass microelectrode resistance used for patch clamp recording was 2-4 MΩ, the sampling frequency was 10 kHz, the filter frequency was 2.9 kHz, the cell clamp was 0 mV, and the voltage stimulation command (channel protocol) was a linear voltage from −100 mV to +100 mV for 300 ms, then restored to 0 mV clamping potential. The recording was performed every 2 s. The hTRPA1 current was induced by 100 μM AITC. To ensure the accuracy of current recording, the series resistance was used for 60% compensation during recording.
Data recording and current amplitude measurement export were completed by Patch Master software. Cells with sealing impedance lower than 500 MΩ, w were not included in the statistics. The original current data were corrected by software for leakage reduction, and the hTRPA1 current amplitude was measured at +100 mV. The compound dose-effect curve and IC50 were fitted and calculated by GraphPad Prism 5.02 (GraphPad Software, San Diego, Calif.).

HepG2 cell = experiment: Cytotoxicity test (CCK-8), hepatotoxicity; assay type: cell-based; details: Homo sapiens, 72 h
Experimental: HepG-2 and SH—SY5Y cells were placed in 10 cm dish and cultured at 37° C., 5% CO2 in a cell incubator. Trypsin was used to digest and resuspend cells and cells were counted. The cells were transferred to 96-well plate with 8000 cells in a well (100 μl/well). A serial of gradient concentration dilutions of compound with 2-fold dilution were prepared, and the system was 100 μL/well. The supernatant of cell culture system in the 96-well plate was removed on the first day, and fresh-prepared drug concentration system was add into culture plate wells (duplicate wells were set). The cells were cultured at 37° C., 5% CO2 in a cell incubator for 72 h. After the cell culture was completed, the supernatant of cell culture system was removed from 96-well plate, 100 μl of detection solution containing 10% CCK-8 medium was added into each well, and the cells were cultured at 37° C., 5% CO2 in a cell incubator for 1 h. Microplate reader was used to measure the absorbance at 450 nm. Data was processed to calculate cytotoxicity, and IC50 was calculated by GraphPad Prism. […]
A (Dosing): the absorbance of wells containing cells, CCK-8 solution and drug solution.
A (control): the absorbance of wells containing medium and CCK-8 solution and without cells.
A (0 Dosing): the absorbance of wells containing cells and CCK-8 solution but without drug solution.

T1 sequence (O75762 whole entry): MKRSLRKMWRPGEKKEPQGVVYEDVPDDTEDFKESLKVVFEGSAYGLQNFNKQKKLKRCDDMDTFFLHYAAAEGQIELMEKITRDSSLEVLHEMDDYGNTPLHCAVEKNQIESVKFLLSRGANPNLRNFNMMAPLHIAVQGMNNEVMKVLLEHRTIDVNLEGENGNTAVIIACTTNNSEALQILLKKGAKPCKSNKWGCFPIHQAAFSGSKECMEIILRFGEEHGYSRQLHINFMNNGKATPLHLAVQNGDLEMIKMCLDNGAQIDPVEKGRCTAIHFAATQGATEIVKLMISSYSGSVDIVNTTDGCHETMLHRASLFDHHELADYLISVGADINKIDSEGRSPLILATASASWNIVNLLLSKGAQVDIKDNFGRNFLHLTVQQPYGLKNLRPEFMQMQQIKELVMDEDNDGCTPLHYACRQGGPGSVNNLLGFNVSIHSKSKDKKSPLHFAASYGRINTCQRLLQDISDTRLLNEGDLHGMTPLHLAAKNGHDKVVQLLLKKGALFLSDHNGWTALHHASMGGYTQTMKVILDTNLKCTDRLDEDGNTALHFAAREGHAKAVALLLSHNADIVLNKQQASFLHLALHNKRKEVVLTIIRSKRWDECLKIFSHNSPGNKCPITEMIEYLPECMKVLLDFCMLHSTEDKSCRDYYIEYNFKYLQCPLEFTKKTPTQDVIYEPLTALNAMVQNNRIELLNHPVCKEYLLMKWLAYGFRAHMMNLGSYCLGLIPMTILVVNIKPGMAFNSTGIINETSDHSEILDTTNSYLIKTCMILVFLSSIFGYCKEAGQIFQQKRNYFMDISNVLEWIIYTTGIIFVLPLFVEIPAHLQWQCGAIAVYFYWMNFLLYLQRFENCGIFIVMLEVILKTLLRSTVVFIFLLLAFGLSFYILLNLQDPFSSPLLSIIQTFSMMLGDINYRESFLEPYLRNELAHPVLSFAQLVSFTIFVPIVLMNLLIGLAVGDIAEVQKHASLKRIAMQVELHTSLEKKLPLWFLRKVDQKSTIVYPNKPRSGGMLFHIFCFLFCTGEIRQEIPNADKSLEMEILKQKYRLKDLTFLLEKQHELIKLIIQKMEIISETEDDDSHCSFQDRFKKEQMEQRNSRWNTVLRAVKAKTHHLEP

Tmax ([1]; male, SD, plasma, IV 2 mg/kg, read-out: Tmax)	Tmax ([1]; male, SD, plasma, PO 10 mg/kg, read-out: Tmax)	ratio of IC50 of S configuration of duloxetine to IC50 of the compound, manual patch clamp (human TRPA1 channel; manual patch clamp)	SMILES	bioavailability ([1]; male, SD, plasma, 10 mg/kg)	AUC(0-inf) ([1]; male, SD, plasma, IV 2 mg/kg)	Cmax ([1]; male, SD, plasma, IV 2 mg/kg)	half-life ([1]; male, SD, plasma, IV 2 mg/kg)	AUC(0-inf) ([1]; male, SD, plasma, PO 10 mg/kg)	Cmax ([1]; male, SD, plasma, PO 10 mg/kg)	half-life ([1]; male, SD, plasma, PO 10 mg/kg)	IC50 (human TRPA1 channel)	IC50 (HepG2 cell)	Tmax ([1]; PO 10 mg/kg, 10 mg/kg)	Tmax ([1]; male, SD, plasma, iv, 2 mg/kg, IV 2 mg/kg, read-out: Tmax)	Tmax ([1]; male, SD, plasma, po, 10 mg/kg, PO 10 mg/kg, read-out: Tmax)
0.083 h	3 h	10.14	CNCC[C@H](Oc1cccc2ccoc12)c1cccs1 [Compound IC-1, (S)-3-(benzofuran-7-yloxy)-N-methyl-3-(thiophen-2-yl)propyl-1-amine]	179%	449 ng·h/mL	170 ng/mL	2.97 h	4020 ng·h/mL	266 ng/mL	5.69 h	0.43 µM				
			CNCC[C@H](Oc1cccc2ccccc12)c1cccs1 [Duloxetine (S configuration), Duloxetine]	9.9%	449 ng·h/mL	177 ng/mL	1.77 h	222 ng·h/mL	76 ng/mL	1.81 h	4.36 µM	33 µM	0.833 h	0.083 h	0.83 h
